Patent publication US5225607A, “Insecticidal ethers” (Imperial Chemical Industries PLC, priority 1985, dated 1993)

How the values were obtained:
Format in all cases: in vivo
Myzus persicae = experiment: Insecticidal test, Myzus persicae (aphids), contact; conditions: 72 h, Chinese Cabbage leaf, 3 days, read-out: grading of mortality, MP
Experimental: (§1) The activity of the Product was determined using a variety of insect and acarine pests. The Product was used in the form of liquid preparations containing 500, 250 or 100 parts per million (ppm) by weight of the Product. The preparations were made by dissolving the Product in acetone and diluting the solutions with water containing 0.01% by weight of a wetting agent sold under the trade name "LISSAPOL" NX until the liquid preparations contained the required concentratio of the Product. "Lissapol" is a Registered Trade Mark.
(§2) The test procedure adopted with regard to each pest was basically the same and comprised supporting a number of the pests on a medium which was usually a host plant or a foodstuff on which the pests feed, and treating either or both the pests and the medium with the preparations. The mortality of the pests was then assessed at periods usually varying from one to three days after the treatment.
(§3) The results of the tests are given in Table IV for each of the Products, at the rate in parts per million given in the second column as a grading of mortality designated as A, B or C wherein A indicates 80-100% mortality or knockdown (70-100% in the case of Spodoptera exigua), B indicates 50-79% mortality or knockdown (50-69% in the case of Spodoptera exigua) and C indicates less than 50% mortality or knockdown.
(§4) In Table IV the pest organism used is designated by a letter code and the pest species, the support medium or food, and the type and duration of test is given in Table III.

Musca domestica [1] = experiment: Knockdown test, Musca domestica (houseflies - adults); conditions: cotton wool/sugar, 4 hours, read-out: grading of knockdown, MD/KD
Experimental: as §1, §2
In the case of the species Musca domestica (housefly), additional tests to determine the knockdown effect of the compounds were performed.
as §3, §4

Musca domestica [2] = experiment: Insecticidal test, Musca domestica (houseflies - adults), contact; conditions: 24 h, cotton wool/sugar, 1 day, read-out: grading of mortality, MD
Experimental: as §1, §2, §3, §4

Blattella germanica = experiment: Insecticidal test, Blattella germanica (cockroach nymphs), residual; conditions: 72 h, plastic pot, 3 days, read-out: grading of mortality, BG
Experimental: as §1, §2, §3, §4

Diabrotica balteata = experiment: Insecticidal test, Diabrotica balteata (rootworm larvae), residual; conditions: 72 h, filter paper/maize seed, 3 days, read-out: grading of mortality, DB
Experimental: as §1, §2, §3, §4

Nilaparvata lugens = experiment: Insecticidal test, Nilaparvata lugens (brown planthopper), contact; conditions: 72 h, Cabbage leaf, 3 days, read-out: grading of mortality, NL
Experimental: as §1, §2, §3, §4

Heliothis virescens = experiment: whole plant or invertebrate; conditions: in Gossypium hirsutum, 72 h, read-out: grading of mortality, HV
Experimental: as §1, §2, §3, §4

Tetranychus urticae = experiment: Insecticidal/acaricidal test, Tetranychus urticae (spider mites - adult), contact; conditions: 72 h, 500 ppm, French bean leaf, 3 days, read-out: grading of mortality, TU
Experimental: as §1, §2, §3, §4

## CCOc1ccc(C(COCc2cccc(Oc3ccccc3)n2)C(F)(F)F)cc1 (centres unmarked) [Compound 4, 1,1,1-Trifluoro-2-(4-ethoxyphenyl)-3-(6-phenoxy-2-pyridylmethyloxy)propane]
Myzus persicae
  mortality at 100 ppm: 80 to 100%
Musca domestica [1]
  pest or weed control at 100 ppm: 80 to 100%
Musca domestica [2]
  mortality at 100 ppm: 80 to 100%
Blattella germanica
  mortality at 100 ppm: 80 to 100%
Diabrotica balteata
  mortality at 100 ppm: 80 to 100%
Nilaparvata lugens
  mortality at 100 ppm: 80 to 100%
Heliothis virescens
  mortality at 100 ppm: 80 to 100%

## CCOc1ccc(C(F)(COCc2ccc(F)c(Oc3ccccc3)c2)C(F)(F)F)cc1 (centres unmarked) [Compound 77, 1,1,1,2-Tetrafluoro-2-(4-ethoxyphenyl)-3-(3-phenoxy-4-fluorobenzyloxy)propane]
Myzus persicae
  mortality at 250 ppm: 80 to 100%
Musca domestica [1]
  pest or weed control at 250 ppm: 80 to 100%
Musca domestica [2]
  mortality at 250 ppm: 80 to 100%
Blattella germanica
  mortality at 250 ppm: 80 to 100%
Diabrotica balteata
  mortality at 250 ppm: 80 to 100%
Nilaparvata lugens
  mortality at 250 ppm: 80 to 100%
Heliothis virescens
  mortality at 250 ppm: 80 to 100%

## CCOc1ccc(C(O)(COCc2cccc(Oc3ccccc3)n2)C(F)(F)F)cc1 (centres unmarked) [Compound 141, 1,1,1-trifluoro-2-(4-ethoxyphenyl)-3-(6-phenoxy-2-pyridylmethyloxy)propan-2-ol]
Myzus persicae
  mortality at 500 ppm: < 50%
Musca domestica [1]
  pest or weed control at 500 ppm: 80 to 100%
Musca domestica [2]
  mortality at 500 ppm: 80 to 100%
Blattella germanica
  mortality at 500 ppm: < 50%
Diabrotica balteata
  mortality at 500 ppm: 50 to 79%
Nilaparvata lugens
  mortality at 500 ppm: 50 to 79%
Heliothis virescens
  mortality at 500 ppm: 80 to 100%

## CCOc1ccc(C(COCc2ccc(F)c(Oc3ccccc3)c2)(OC)C(F)(F)F)cc1 (centres unmarked) [Compound 150, 1,1,1-trifluoro-2-methoxy-2-(4-ethoxyphenyl)-3-(3-phenoxy-4-fluorobenzyloxy)propane]
Myzus persicae
  mortality at 250 ppm: 50 to 79%
Musca domestica [1]
  pest or weed control at 250 ppm: < 50%
Musca domestica [2]
  mortality at 250 ppm: < 50%
Blattella germanica
  mortality at 250 ppm: < 50%
Diabrotica balteata
  mortality at 250 ppm: 80 to 100%
Nilaparvata lugens
  mortality at 250 ppm: < 50%
Heliothis virescens
  mortality at 250 ppm: 80 to 100%

## CCOc1ccc(C(F)(COCc2c(F)c(F)c(C)c(F)c2F)C(F)(F)F)cc1 (centres unmarked) [Compound 78, 1,1,1,2-Tetrafluoro-2-(4-ethoxyphenyl)-3-(4-methyl-2,3,5,6-tetrafluorobenzyloxy)propane]
Myzus persicae
  mortality at 250 ppm: < 50%
Musca domestica [1]
  pest or weed control at 250 ppm: < 50%
Musca domestica [2]
  mortality at 250 ppm: < 50%
Blattella germanica
  mortality at 250 ppm: 80 to 100%
Diabrotica balteata
  mortality at 250 ppm: 80 to 100%
Nilaparvata lugens
  mortality at 250 ppm: 80 to 100%
Heliothis virescens
  mortality at 250 ppm: 80 to 100%

## CCOc1ccc(C(F)(COCc2cccc(Oc3ccccc3)c2)C(F)(F)F)cc1 (centres unmarked) [Compound 75, 1,1,1,2-tetrafluoro-2-(4-ethoxyphenyl)-3-(3-phenoxybenzyloxy)propane]
Myzus persicae
  mortality at 100 ppm: 50 to 79%
Musca domestica [1]
  pest or weed control at 100 ppm: 80 to 100%
Musca domestica [2]
  mortality at 100 ppm: 50 to 79%
Blattella germanica
  mortality at 100 ppm: < 50%
Diabrotica balteata
  mortality at 100 ppm: 80 to 100%
Nilaparvata lugens
  mortality at 100 ppm: 80 to 100%
Heliothis virescens
  mortality at 100 ppm: < 50%

## Fc1ccc(COCC(F)(c2ccc(Cl)cc2)C(F)(F)F)cc1Oc1ccccc1 (centres unmarked) [Compound 81, 1,1,1,2-tetrafluoro-2-(4-chlorophenyl)-3-(3-phenoxy-4-fluorobenzyloxy)propane]
Myzus persicae
  mortality at 500 ppm: 80 to 100%
Musca domestica [1]
  pest or weed control at 500 ppm: 80 to 100%
Musca domestica [2]
  mortality at 500 ppm: 80 to 100%
Blattella germanica
  mortality at 500 ppm: 80 to 100%
Diabrotica balteata
  mortality at 500 ppm: 80 to 100%
Nilaparvata lugens
  mortality at 500 ppm: 80 to 100%
Tetranychus urticae
  mortality at 500 ppm: < 50%

## CCOc1ccc(C(O)(COCc2c(F)c(F)c(C)c(F)c2F)C(F)(F)F)cc1 (centres unmarked) [Compound 114, 1,1,1-Trifluoro-2-(4-ethoxyphenyl)-3-(4-methyl-2,3,5,6-tetrafluorobenzyloxy)propan-2-ol]
Myzus persicae
  mortality at 100 ppm: < 50%
Musca domestica [1]
  pest or weed control at 100 ppm: < 50%
Musca domestica [2]
  mortality at 100 ppm: < 50%
Blattella germanica
  mortality at 100 ppm: < 50%
Diabrotica balteata
  mortality at 100 ppm: < 50%
Nilaparvata lugens
  mortality at 100 ppm: 50 to 79%
Heliothis virescens
  mortality at 100 ppm: < 50%

## CCOc1ccc(C(Cl)(COCc2cccc(Oc3ccccc3)n2)C(F)(F)F)cc1 (centres unmarked) [Compound 41, 1,1,1-Trifluoro-2-chloro-2-(4-ethoxyphenyl)-3-(6-phenoxy-2-pyridylmethyloxy)propane]
Myzus persicae
  mortality at 500 ppm: 80 to 100%
Musca domestica [1]
  pest or weed control at 500 ppm: 80 to 100%
Musca domestica [2]
  mortality at 500 ppm: 80 to 100%
Blattella germanica
  mortality at 500 ppm: < 50%
Diabrotica balteata
  mortality at 500 ppm: 80 to 100%
Nilaparvata lugens
  mortality at 500 ppm: 80 to 100%
Heliothis virescens
  mortality at 500 ppm: 80 to 100%

## CCOc1ccc(C(O)(COCc2ccc(F)c(Oc3ccc(Br)cc3)c2)C(F)(F)F)cc1 (centres unmarked) [Compound 116, 1,1,1-Trifluoro-2-(4-ethoxyphenyl)-3-(3-(4-bromophenoxy)-4-fluorobenzyloxy)propan-2-ol]
Myzus persicae
  mortality at 500 ppm: < 50%
Musca domestica [1]
  pest or weed control at 500 ppm: 50 to 79%
Musca domestica [2]
  mortality at 500 ppm: 50 to 79%
Blattella germanica
  mortality at 500 ppm: < 50%
Diabrotica balteata
  mortality at 500 ppm: < 50%
Nilaparvata lugens
  mortality at 500 ppm: < 50%
Tetranychus urticae
  mortality at 500 ppm: 80 to 100%

## CCOc1ccc(C(COCc2ccc(F)c(Oc3ccccc3)c2)(OC(C)=O)C(F)(F)F)cc1 (centres unmarked) [Compound 149, 1,1,1-trifluoro-2-acetoxy-2-(4-ethoxyphenyl)-3-(3-phenoxy-4-fluorobenzyloxy)propane]
Myzus persicae
  mortality at 250 ppm: < 50%
Musca domestica [1]
  pest or weed control at 250 ppm: < 50%
Musca domestica [2]
  mortality at 250 ppm: < 50%
Blattella germanica
  mortality at 250 ppm: < 50%
Diabrotica balteata
  mortality at 250 ppm: < 50%
Nilaparvata lugens
  mortality at 250 ppm: 50 to 79%
Heliothis virescens
  mortality at 250 ppm: 50 to 79%

## OC(COCc1cccc(Oc2ccccc2)c1)(c1ccc(OC(F)(F)F)cc1)C(F)(F)F (centres unmarked) [Compound 139, 1,1,1-trifluoro-2-(4-trifluoromethoxyphenyl)-3-(3-phenoxybenzyloxy)-propan-2-ol]
Myzus persicae
  mortality at 500 ppm: < 50%
Musca domestica [1]
  pest or weed control at 500 ppm: 80 to 100%
Musca domestica [2]
  mortality at 500 ppm: 80 to 100%
Blattella germanica
  mortality at 500 ppm: < 50%
Diabrotica balteata
  mortality at 500 ppm: 80 to 100%
Nilaparvata lugens
  mortality at 500 ppm: < 50%
Heliothis virescens
  mortality at 500 ppm: 80 to 100%

## CCOc1ccc(C(F)(COCc2cccc(Oc3ccccc3)n2)C(F)(F)F)cc1 (centres unmarked) [Compound 76, 1,1,1,2-Tetrafluoro-2-(4-ethoxyphenyl)-3-(6-phenoxy-2-pyridylmethyloxy)propane]
Myzus persicae
  mortality at 500 ppm: 80 to 100%
Musca domestica [1]
  pest or weed control at 500 ppm: 80 to 100%
Musca domestica [2]
  mortality at 500 ppm: 80 to 100%
Blattella germanica
  mortality at 500 ppm: 80 to 100%
Diabrotica balteata
  mortality at 500 ppm: 80 to 100%
Nilaparvata lugens
  mortality at 500 ppm: 80 to 100%
Heliothis virescens
  mortality at 500 ppm: 80 to 100%

## OC(COCc1ccc(F)c(Oc2ccccc2)c1)(c1ccc(Cl)cc1)C(F)(F)F (centres unmarked) [Compound 126, 1,1,1-Trifluoro-2-(4-chlorophenyl)-3-(3-phenoxy-4-fluorobenzyloxy)propan-2-ol]
Myzus persicae
  mortality at 500 ppm: < 50%
Musca domestica [1]
  pest or weed control at 500 ppm: 80 to 100%
Musca domestica [2]
  mortality at 500 ppm: < 50%
Blattella germanica
  mortality at 500 ppm: < 50%
Diabrotica balteata
  mortality at 500 ppm: < 50%
Nilaparvata lugens
  mortality at 500 ppm: < 50%
Tetranychus urticae
  mortality at 500 ppm: 80 to 100%

## CCOc1ccc(C(Cl)(COCc2c(F)c(F)c(C)c(F)c2F)C(F)(F)F)cc1 (centres unmarked) [Compound 39, 1,1,1-Trifluoro-2-chloro-2-(4-ethoxyphenyl)-3-(4-methyl-2,3,5,6-tetrafluorobenzyloxy)propane]
Myzus persicae
  mortality at 250 ppm: < 50%
Musca domestica [1]
  pest or weed control at 250 ppm: < 50%
Musca domestica [2]
  mortality at 250 ppm: < 50%
Blattella germanica
  mortality at 250 ppm: < 50%
Diabrotica balteata
  mortality at 250 ppm: < 50%
Nilaparvata lugens
  mortality at 250 ppm: 80 to 100%
Heliothis virescens
  mortality at 250 ppm: < 50%

## CCOc1ccc(C(Cl)(COCc2ccc(F)c(Oc3ccccc3)c2)C(F)(F)F)cc1 (centres unmarked) [Compound 40, 1,1,1-Trifluoro-2-chloro-2-(4-ethoxyphenyl)-3-(3-phenoxy-4-fluorobenzyloxy)propane]
Myzus persicae
  mortality at 250 ppm: 80 to 100%
Musca domestica [1]
  pest or weed control at 250 ppm: 80 to 100%
Musca domestica [2]
  mortality at 250 ppm: 80 to 100%
Blattella germanica
  mortality at 250 ppm: 80 to 100%
Diabrotica balteata
  mortality at 250 ppm: 80 to 100%
Nilaparvata lugens
  mortality at 250 ppm: 80 to 100%
Heliothis virescens
  mortality at 250 ppm: 80 to 100%

## CCOc1ccc(C(O)(COCc2ccc(F)c(Oc3ccccc3)c2)C(F)(F)F)cc1 (centres unmarked) [Compound 113, 1,1,1-Trifluoro-2-(4-ethoxyphenyl)-3-(4-fluoro-3-phenoxybenzyloxy)propan-2-ol]
Myzus persicae
  mortality at 250 ppm: < 50%
Musca domestica [1]
  pest or weed control at 250 ppm: 80 to 100%
Musca domestica [2]
  mortality at 250 ppm: 50 to 79%
Blattella germanica
  mortality at 250 ppm: < 50%
Diabrotica balteata
  mortality at 250 ppm: 80 to 100%
Nilaparvata lugens
  mortality at 250 ppm: 50 to 79%
Heliothis virescens
  mortality at 250 ppm: < 50%
